Assay results reported in ChEMBL document CHEMBL1687927, “Design and optimization of potent and orally bioavailable tetrahydronaphthalene Raf inhibitors” (J Med Chem, 2011).
The source made the active and inactive calls. The rule behind the calls is not given here.

Tests used:
[1] = molecular target: T1, Serine/threonine-protein kinase B-raf (Homo sapiens, UniProt P15056, V600E)
[2] = molecular target: RAF proto-oncogene serine/threonine-protein kinase (Homo sapiens, UniProt P04049); assay: Inhibition of C-Raf assessed as reduction in [33P]ATP incorporation into biotinylated substrate peptide after 3 hrs by flash plate assay
[3] = molecular target: T1, Serine/threonine-protein kinase B-raf; assay: Inhibition of raf kinase in human A375 cells assessed as decrease in MEK-mediated ERK phosphorylation after 3 hrs using 3,3',5,5'-tetramethylbenzidine liquid substrate system; type: cell-based; conditions: a-375
[4] = Plasma clearance in mouse at 10 mg, po in 20% HPbCD vehicle; type: ADME, organism-based
Mus musculus [5] = assay: Volume of distribution at steady state in mouse at 1 mg/kg, iv or 10 mg, po; type: ADME, organism-based; design: dose 1 mg/kg, route oral; conditions: in vivo
[6] = AUC (0 to 24 hrs) in mouse at 10 mg, po in 20% HPbCD vehicle; type: ADME, organism-based; design: dose 10 mg, time < 24 hr, route oral; conditions: plasma
[7] = Oral bioavailability in mouse at 10 mg; type: ADME, organism-based; conditions: in vivo
Mus musculus [8] = assay: Inhibition of ERK phosphorylation in human A375M cells xenografted in mouse at 100 mg/kg, po administered as single dose in 10% HPbCD measured 4 hrs post dose by Li-Cor quantitative Western blot analysis relative to control; type: functional
Mus musculus [9] = assay: Inhibition of ERK phosphorylation in human A375M cells xenografted in mouse at 100 mg/kg, po administered as single dose in 10% HPbCD measured 8 hrs post dose by Li-Cor quantitative Western blot analysis relative to control; type: functional
Mus musculus [10] = assay: Inhibition of ERK phosphorylation in human A375M cells xenografted in mouse at 100 mg/kg, po administered as single dose in 10% HPbCD measured 24 hrs post dose by Li-Cor quantitative Western blot analysis relative to control; type: functional
[11] = Plasma concentration in mouse xenografted with human A375M cells at 100 mg/kg, po administered as single dose in 10% HPbCD measured 4 hrs post dose by LC/MS/MS; type: ADME, organism-based; design: dose 100 mg/kg, route oral
[12] = Plasma concentration in mouse xenografted with human A375M cells at 100 mg/kg, po administered as single dose in 10% HPbCD measured 8 hrs post dose by LC/MS/MS; type: ADME, organism-based; design: dose 100 mg/kg, route oral
[13] = Plasma concentration in mouse xenografted with human A375M cells at 100 mg/kg, po administered as single dose in 10% HPbCD measured 24 hrs post dose by LC/MS/MS; type: ADME, organism-based; design: dose 100 mg/kg, route oral
[14] = Inhibition of MEK
[15] = Inhibition of PDGFR
Homo sapiens [16] = assay: Antitumor activity against human A375M cells xenografted mouse model assessed as partial tumor regression at 100 mg/kg, po qd for 21 days; type: functional, organism-based; design: dose 100 mg/kg
Mus musculus [17] = assay: Plasma clearance in mouse at 1 mg/kg, iv and 10 mg, po in 10% HPbCD vehicle; type: ADME, organism-based; design: dose 1 mg/kg, route oral; conditions: in vivo
[18] = AUC (0 to 24 hrs) in mouse at 10 mg, po in 10% HPbCD vehicle; type: ADME, organism-based; design: time < 24 hr, dose 10 mg, route oral; conditions: plasma
Plasma = assay: Plasma concentration in mouse assessed as (R)-3-((methyl amino)methyl)-N-(7-(7-oxo-5,6,7,8-tetrahydro-1,8-naphthyridin-4-yloxyl)-1,2,3,4-tetrahydronaphthalen-2-yl )-5-(trifluoromethyl)benzamide at 10 mg, po; type: ADME, organism-based; conditions: in vivo
Mus musculus [19] = assay: Inhibition of ERK phosphorylation in human A375M cells xenografted in mouse at 75 mg/kg, po administered as single dose in 10% HPbCD measured 4 hrs post dose by Li-Cor quantitative Western blot analysis relative to control; type: functional
Mus musculus [20] = assay: Inhibition of ERK phosphorylation in human A375M cells xenografted in mouse at 75 mg/kg, po administered as single dose in 10% HPbCD measured 8 hrs post dose by Li-Cor quantitative Western blot analysis relative to control; type: functional
Mus musculus [21] = assay: Inhibition of ERK phosphorylation in human A375M cells xenografted in mouse at 75 mg/kg, po administered as single dose in 10% HPbCD measured 24 hrs post dose by Li-Cor quantitative Western blot analysis relative to control; type: functional
[22] = Plasma concentration in mouse xenografted with human A375M cells at 75 mg/kg, po administered as single dose in 10% HPbCD measured 4 hrs post dose by LC/MS/MS; type: ADME, organism-based; design: dose 75 mg/kg, route oral
[23] = Plasma concentration in mouse xenografted with human A375M cells at 75 mg/kg, po administered as single dose in 10% HPbCD measured 8 hrs post dose by LC/MS/MS; type: ADME, organism-based; design: dose 75 mg/kg, route oral
[24] = Plasma concentration in mouse xenografted with human A375M cells at 75 mg/kg, po administered as single dose in 10% HPbCD measured 24 hrs post dose by LC/MS/MS; type: ADME, organism-based; design: dose 75 mg/kg, route oral
Homo sapiens [25] = assay: Antitumor activity against human A375M cells xenografted mouse model assessed as partial tumor regression at 75 mg/kg, po qd for 21 days; type: functional, organism-based; design: dose 75 mg/kg

Sequence of RAF proto-oncogene serine/threonine-protein kinase (P04049 whole entry): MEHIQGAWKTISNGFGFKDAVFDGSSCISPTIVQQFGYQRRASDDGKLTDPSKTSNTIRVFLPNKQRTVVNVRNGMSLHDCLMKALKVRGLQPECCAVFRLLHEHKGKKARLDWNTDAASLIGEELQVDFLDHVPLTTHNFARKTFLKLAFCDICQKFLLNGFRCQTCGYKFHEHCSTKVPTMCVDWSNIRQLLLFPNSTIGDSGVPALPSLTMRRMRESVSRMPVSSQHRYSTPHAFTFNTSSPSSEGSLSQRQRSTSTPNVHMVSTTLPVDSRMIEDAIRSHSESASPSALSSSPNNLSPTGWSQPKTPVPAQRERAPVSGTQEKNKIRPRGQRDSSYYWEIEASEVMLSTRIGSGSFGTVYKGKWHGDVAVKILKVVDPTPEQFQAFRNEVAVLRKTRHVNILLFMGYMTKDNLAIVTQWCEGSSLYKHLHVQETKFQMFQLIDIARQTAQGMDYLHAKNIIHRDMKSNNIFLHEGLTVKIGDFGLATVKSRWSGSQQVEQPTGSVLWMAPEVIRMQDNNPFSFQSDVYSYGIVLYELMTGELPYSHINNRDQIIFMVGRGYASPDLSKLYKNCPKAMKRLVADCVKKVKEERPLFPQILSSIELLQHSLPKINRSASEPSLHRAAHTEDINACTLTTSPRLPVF
T1 sequence (P15056 2-766 V600E limits assumed): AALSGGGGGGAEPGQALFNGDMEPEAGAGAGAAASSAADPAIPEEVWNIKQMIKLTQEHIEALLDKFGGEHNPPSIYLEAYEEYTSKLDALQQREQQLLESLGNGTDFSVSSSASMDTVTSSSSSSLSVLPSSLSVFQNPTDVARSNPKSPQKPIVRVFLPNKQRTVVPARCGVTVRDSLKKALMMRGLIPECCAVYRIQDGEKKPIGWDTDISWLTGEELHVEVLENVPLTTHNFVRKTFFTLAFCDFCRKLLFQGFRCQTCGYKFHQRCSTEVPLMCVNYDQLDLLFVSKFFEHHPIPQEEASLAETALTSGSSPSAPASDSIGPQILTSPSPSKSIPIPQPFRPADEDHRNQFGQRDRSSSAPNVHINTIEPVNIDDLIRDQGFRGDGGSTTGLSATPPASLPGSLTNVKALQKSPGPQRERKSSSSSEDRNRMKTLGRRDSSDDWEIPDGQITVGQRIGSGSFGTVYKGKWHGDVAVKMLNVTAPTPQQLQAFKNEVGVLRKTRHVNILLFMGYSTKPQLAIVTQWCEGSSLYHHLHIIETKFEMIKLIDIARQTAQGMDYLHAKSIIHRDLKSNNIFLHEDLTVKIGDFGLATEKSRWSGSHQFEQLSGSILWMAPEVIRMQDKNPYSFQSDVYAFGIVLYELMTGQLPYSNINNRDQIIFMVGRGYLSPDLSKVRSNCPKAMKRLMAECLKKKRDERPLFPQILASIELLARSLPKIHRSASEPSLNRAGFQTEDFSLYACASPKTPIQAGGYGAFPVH

SMILES	IC50 [1] [µM]	IC50 [2] [µM]	IC50 [3] [µM]	Vdss (Mus musculus [5]) [L/kg]	bioavailability [7] [%]	other results
CNC(=O)c1cc(Oc2ccc3c(c2)CC(C(=O)Nc2ccc(Cl)c(C(F)(F)F)c2)CC3)ccn1 (racemic)	0.032	0.028	2.9	–	–	–
CNC(=O)c1cc(Oc2cccc(CCC(=O)Nc3ccc(Cl)c(C(F)(F)F)c3)c2)ccn1	0.047	0.009	> 25	–	–	–
NCc1cc(NC(=O)[C@@H]2CCc3ccc(Oc4ccnc(NC(=O)C5CC5)c4)cc3C2)cc(C(F)(F)F)c1	0.006	0.006	0.78	–	–	–
CNC(=O)c1cc(Oc2ccc3c(c2)CC(C(=O)Nc2cc(CN)cc(C(F)(F)F)c2)CC3)ccn1 (stereo unspecified)	0.02	0.011	1.4	–	–	–
CN(C)Cc1cc(C(=O)N[C@H]2CCc3ccc(Oc4ccnc(NC(=O)C5CC5)c4)cc3C2)cc(C(F)(F)F)c1	0.0032	–	1.1	–	–	–
CC(C)(N)c1cc(C(=O)N[C@@H]2CCc3ccc(Oc4ccnc5c4CCC(=O)N5)cc3C2)cc(C(F)(F)F)c1	–	–	–	3.93	85	inhibition in vivo at 75 mg/kg (Mus musculus [19]): 87%; inhibition in vivo at 75 mg/kg (Mus musculus [20]): 90%; inhibition in vivo at 75 mg/kg (Mus musculus [21]): 83%; concentration at 4 h [22]: 23 µM; concentration at 8 h [23]: 27 µM; concentration at 24 h [24]: 3 µM; IC50 [14]: 1.4 µM; IC50 [15]: 0.047 µM; Activity (Homo sapiens [25]): Active; CL (Mus musculus [17]): 0.44 L/h/kg; AUC(0-t) at 24 h [18]: 35.9 µM·h
CNC(=O)c1cc(Oc2ccc(CCC(=O)Nc3ccc(Cl)c(C(F)(F)F)c3)cc2)ccn1	0.061	0.01	> 25	–	–	–
CNCc1cc(C(=O)N[C@@H]2CCc3ccc(Oc4ccnc5c4CCC(=O)N5)cc3C2)cc(C(F)(F)F)c1	–	–	–	0.75	50	CL (Mus musculus [17]): 0.73 L/h/kg; AUC(0-t) at 24 h [18]: 12.4 µM·h
CN(C)Cc1cc(NC(=O)[C@H]2CCc3ccc(Oc4ccnc(NC(=O)C5CC5)c4)cc3C2)cc(C(F)(F)F)c1	0.004	0.0033	0.13	6.07	27	CL/F [4]: 1.41 L/h/kg; AUC(0-t) at 24 h [6]: 2.87 µM·h

Second part, led by results:

IC50 [1] [µM]	IC50 [2] [µM]	IC50 [3] [µM]	Vdss (Mus musculus [5]) [L/kg]	bioavailability [7] [%]	SMILES	other results
0.008	0.0062	0.15	6.4	1.9	NCc1cc(NC(=O)C2CCc3ccc(Oc4ccnc(NC(=O)C5CC5)c4)cc3C2)cc(C(F)(F)F)c1 (stereo unspecified)	CL/F [4]: 0.4 L/h/kg; AUC(0-t) at 24 h [6]: 0.58 µM·h
–	–	–	0.75	100	CN(C)Cc1cc(C(=O)N[C@@H]2CCc3ccc(Oc4ccnc5c4CCC(=O)N5)cc3C2)cc(C(F)(F)F)c1	inhibition in vivo at 100 mg/kg (Mus musculus [8]): 93%; inhibition in vivo at 100 mg/kg (Mus musculus [9]): 92%; inhibition in vivo at 100 mg/kg (Mus musculus [10]): 72%; concentration at 4 h [11]: 28 µM; concentration at 8 h [12]: 29 µM; concentration at 24 h [13]: 0.4 µM; IC50 [14]: > 10 µM; IC50 [15]: 1.1 µM; Activity (Homo sapiens [16]): Active; CL (Mus musculus [17]): 0.23 L/h/kg; AUC(0-t) at 24 h [18]: 98.6 µM·h; Drug uptake (Plasma): 30%
0.005	0.0046	0.19	–	–	CC(C)NCc1cc(NC(=O)C2CCc3ccc(Oc4ccnc(NC(=O)C5CC5)c4)cc3C2)cc(C(F)(F)F)c1 (stereo unspecified)	AUC(0-t) at 24 h [6]: 15.6 µM·h
0.005	0.0045	0.13	–	–	NCc1cc(NC(=O)[C@H]2CCc3ccc(Oc4ccnc(NC(=O)C5CC5)c4)cc3C2)cc(C(F)(F)F)c1	–
–	–	0.079	–	–	CC(C)(N)c1cc(NC(=O)[C@H]2CCc3ccc(Oc4ccnc5c4CCC(=O)N5)cc3C2)cc(C(F)(F)F)c1	–
0.026	0.016	5	–	–	CNC(=O)c1cc(Oc2ccc3c(c2)CC(C(=O)Nc2ccc(CN)c(C(F)(F)F)c2)CC3)ccn1 (stereo unspecified)	–
0.0033	–	0.11	3.87	20	CC(C)NCc1cc(NC(=O)[C@H]2CCc3ccc(Oc4ccnc5c4CCC(=O)N5)cc3C2)cc(C(F)(F)F)c1	CL (Mus musculus [17]): 0.32 L/h/kg; AUC(0-t) at 24 h [18]: 20.7 µM·h
–	0.006	–	–	–	CC(=O)Nc1cc(Oc2ccc3c(c2)C[C@@H](C(=O)Nc2cc(CN)cc(C(F)(F)F)c2)CC3)ccn1	–
0.0029	–	0.07	2.19	22	CN(C)Cc1cc(C(=O)N[C@@H]2CCc3ccc(Oc4ccnc(NC(=O)C5CC5)c4)cc3C2)cc(C(F)(F)F)c1	CL (Mus musculus [17]): 2.14 L/h/kg; AUC(0-t) at 24 h [18]: 0.51 µM·h
